Measurements reported in patent publication US20220204497A1, “NOVEL COMPOUND HAVING ANTICANCER ACTIVITY, AND METHOD FOR PRODUCING SAME” (MEDICINAL BIOCONVERGENCE RESEARCH CENTER, priority 2019, published 2022).

Key:
[1] = system: A549 cells; test: Cell viability by MTT method in A549 cells; format: cell-based; set-up: concentration or dose not given beside the values; settings: 72 hours treatment
[2] = target: T1, AIMP2-DX2 (Homo sapiens, UniProt Q13155); test: DX2-nanoluciferase assay (DX2 expression change) in transfected A549 cells; settings: for inhibition at 40 µM / inhibition at 10 µM: A549, 4 h; for inhibition at 40 µM: read-out: DX-Nanoluciferase activity (40 μM), 40 μM, 4 hours treatment, A549 cells transfected with nanoluciferase-DX2; for inhibition at 40 µM / DX-Nanoluciferase activity (40 μM): inhibitory effect on AIMP2-DX2 expression; for DX-Nanoluciferase activity (40 μM) / DX-Nanoluciferase activity (10 μM): 4 hours treatment, A549 cells transfected with nanoluciferase-DX2; for inhibition at 10 µM: read-out: DX-Nanoluciferase activity (10 μM), 10 μM, 4 hours treatment, A549 cells transfected with nanoluciferase-DX2
T1 sequence (Q13155 1-251 isoform Q13155-2): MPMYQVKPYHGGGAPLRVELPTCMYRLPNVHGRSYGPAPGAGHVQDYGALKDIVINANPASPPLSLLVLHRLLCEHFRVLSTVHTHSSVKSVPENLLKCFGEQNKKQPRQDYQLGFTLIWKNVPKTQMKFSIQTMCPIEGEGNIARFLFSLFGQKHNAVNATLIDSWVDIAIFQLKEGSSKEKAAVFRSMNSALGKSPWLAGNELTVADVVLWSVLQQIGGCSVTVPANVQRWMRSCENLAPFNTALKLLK
Protocol: After cloning DX2 into a plasmid expressing nanoluciferase, the plasmid was transfected into A549 cells. Transfected cells were seeded 1×10^4 per well in a 96-well plate and stabilized for 12 hours. […] Cell viability was measured by the MTT method after 72 hours of treatment with each concentration of the compound in A549 cells.

inhibition at 40 µM [2] [%]	DX-Nanoluciferase activity (40 μM) [2]	inhibition at 10 µM [2] [%]	Compound	Cell Viability (% inhibition) (A549) [1]	DX-Nanoluciferase activity (10 μM) [2]
57.5 ± 9.11	–	–	O=C(Nc1nccs1)[C@H](Cc1c[nH]c2ccccc12)NS(=O)(=O)c1ccc(Br)cc1 [Compound 109, (S)-2-(4-Bromophenylsulfonamido)-3-(1H-indol-3-yl)-N-(thiazol-2-yl)propanamide]	4.14 ± 1.04%	–
46.7 ± 7.18	–	–	Cc1cnc(NC(=O)[C@H](Cc2c[nH]c3ccccc23)NS(=O)(=O)c2ccc(Br)cc2)s1 [Compound 110, (S)-2-(4-Bromophenylsulfonamido)-3-(1H-indol-3-yl)-N-(5-methylthiazol-2-yl)propanamide]	8.95 ± 3.66%	–
–	25.61 ± 22.32	–	Cc1ccc(S(=O)(=O)N[C@@H](Cc2c[nH]c3ccccc23)C(=O)Nc2nc(C)cs2)cc1 [Compound 111, (S)-3-(1H-indol-3-yl)-2-(4-methylphenylsulfonamido)-N-(4-methylthiazol-2-yl)propanamide]	11.65 ± 6.05%	–
61.5 ± 5.19	–	–	Cc1ccc(S(=O)(=O)N[C@@H](Cc2c[nH]c3ccccc23)C(=O)Nc2ncc(C)s2)cc1 [Compound 112, (S)-3-(1H-indol-3-yl)-2-(4-methylphenylsulfonamido)-N-(5-methylthiazol-2-yl)propanamide]	15.01 ± 6.55%	–
–	–	15.1 ± 6.22	COC(=O)c1ccc(S(=O)(=O)N[C@@H](Cc2c[nH]c3ccccc23)C(=O)Nc2ccc(N3CCOCC3)cc2)cc1 [Compound 113, (S)-Methyl 4-(N-(3-(1H-indol-3-yl)-1-(4-morpholinophenylamino)-1-oxopropan-2-yl)sulfamoyl)benzoate]	4.67 ± 3.85%	–
–	–	3.48 ± 8.58	CCOC(=O)c1ccc(S(=O)(=O)N[C@@H](Cc2c[nH]c3ccccc23)C(=O)Nc2ccc(N3CCOCC3)cc2)cc1 [Compound 114, (S)-Ethyl 4-(N-(3-(1H-indol-3-yl)-1-(4-morpholinophenylamino)-1-oxopropan-2-yl)sulfamoyl)benzoate]	47.88 ± 0.53%	–
–	–	2.16 ± 6.66	Cc1ccc(S(=O)(=O)N[C@@H](Cc2ccc(C(=O)c3ccccc3)cc2)C(=O)Nc2ccc(N3CCOCC3)cc2)cc1 [Compound 115, (S)-3-(4-Benzoylphenyl)-2-(4-methylphenylsulfonamido)-N-(4-morpholinophenyl)propanamide]	0.35 ± 0.67%	–
–	–	-0.11 ± 15.1	CNC(=O)c1ccc(S(=O)(=O)N[C@@H](Cc2c[nH]c3ccccc23)C(=O)Nc2ccc(N3CCOCC3)cc2)cc1 [Compound 116, (S)-4-(N-(3-(1H-indol-3-yl)-1-(4-morpholinophenylamino)-1-oxopropan-2-yl)sulfamoyl)-N-methylbenzamide]	34.22 ± 7.94%	–
–	–	-2.56 ± 9.56	Cc1ccc(S(=O)(=O)N[C@@H](Cc2ccc3ccccc3c2)C(=O)Nc2ccc(N3CCOCC3)cc2)cc1 [Compound 117, (S)-2-(4-Methylphenylsulfonamido)-N-(4-morpholinophenyl)-3-(naphthalen-2-yl)propanamide]	4.59 ± 6.86%	–
–	–	8.22 ± 5.02	CC(C)(C)OC(=O)N[C@@H](Cc1c[nH]c2ccccc12)C(=O)Nc1ccc(N2CCOCC2)cc1 [Compound 118, (S)-tert-Butyl 3-(1H-Indol-3-yl)-1-(4-morpholinophenylamino)-1-oxopropan-2-ylcarbamate]	9.26 ± 7.63%	–
–	–	–	Cc1ccc(S(=O)(=O)N[C@@H](Cc2c[nH]c3ccccc23)C(=O)O)cc1 [Compound 119, (S)-3-(1-Indol-3-yl)-2-(4-methylphenylsulfonamido)propanoic acid]	1.59 ± 8.71%	14.92 ± 10.18
–	–	21.3 ± 14.2	COc1cc(N2CCN(C(=O)OC(C)(C)C)CC2)ccc1NC(=O)[C@H](Cc1c[nH]c2ccccc12)NS(=O)(=O)c1ccc(C)cc1 [Compound 120, (S)-tert-Butyl 4-(4-(3-(1H-indol-3-yl)-2-(4-methylphenylsulfonamido)propanamido)-3-methoxyphenyl)piperazine-1-carboxylate]	66.51 ± 1.24%	–
–	–	41.7 ± 17.3	COc1cc(N2CCNCC2)ccc1NC(=O)[C@H](Cc1c[nH]c2ccccc12)NS(=O)(=O)c1ccc(C)cc1 [Compound 121, (S)-3-(1H-indol-3-yl)-N-(2-methoxy-4-(piperazin-1-yl)phenyl)-2-(4-methylphenylsulfonamido)propanamide]	51.15 ± 0.5%	–
–	–	38 ± 1.7	Cc1ccc(S(=O)(=O)N[C@@H](Cc2c[nH]c3ccccc23)C(=O)Nc2ccc(N3CCN(C(=O)OC(C)(C)C)CC3)cc2)cc1 [Compound 122, (S)-tert-Butyl 4-(4-(3-(1H-indol-3-yl)-2-(4-methylphenylsulfonamido)propanamido)phenyl)piperazine-1-carboxylate]	69.45 ± 1.3%	–
–	–	22.4 ± 11.8	COc1cc(N2CCOCC2)ccc1NC(=O)[C@H](Cc1c[nH]c2ccccc12)NS(=O)(=O)c1ccc(C)cc1 [Compound 123, (S)-3-(1H-indol-3-yl)-N-(2-methoxy-4-morpholinophenyl)-2-(4-methylphenylsulfonamido)propanamide]	34.01 ± 10.45%	–
–	–	20.9 ± 9.8	Cc1ccc(S(=O)(=O)N[C@@H](Cc2c[nH]c3ccccc23)C(=O)Nc2ccc(N3CCNCC3)cc2)cc1 [Compound 124, (S)-3-(1H-indol-3-yl)-2-(4-methylphenylsulfonamido)-N-(4-(piperazin-1-yl)phenyl)propanamide]	16.44 ± 18.56%	–
49.9 ± 1.6	–	–	Cc1ccc(S(=O)(=O)N[C@@H](Cc2c[nH]c3ccccc23)C(=O)OCc2ccccc2)cc1 [Compound 127, (S)-Benzyl 3-(1H-indol-3-yl)-2-(4-methylphenylsulfonamido)propanoate]	94.24 ± 0.54%	–
36.8 ± 8.13	–	–	Cc1ccc(C(=O)N[C@@H](Cc2c[nH]c3ccccc23)C(=O)OCc2ccccc2)cc1 [Compound 128, (S)-Benzyl 3-(1H-indol-3-yl)-2-(4-methylbenzamido)propanoate]	63.08 ± 7.72%	–
–	53.02 ± 9.60	–	Cc1ccc(C(=O)N[C@@H](Cc2c[nH]c3ccccc23)C(=O)Nc2ccc(N3CCOCC3)cc2)cc1 [Compound 129, (S)—N-(3-(1 Indol-3-yl)-1-(4-morpholinophenylamino)-1-oxopropan-2-yl)-4-methylbenzamide]	60.35 ± 3.98%	–
31.3 ± 4.4	–	–	Cc1ccc(S(=O)(=O)NCC(=O)N2CCOCC2)cc1 [Compound 155, 4-Methyl-N-(2-morpholino-2-oxoethyl)benzenesulfonamide]	17.30 ± 0.81%	–
-0.2 ± 6.6	–	–	Cc1ccc(S(=O)(=O)NC2(C(=O)N3CCOCC3)CCCCC2)cc1 [Compound 156, 4-Methyl-N-(1-(morpholine-4-carbonyl)cyclohexyl)benzenesulfonamide]	13.51 ± 2.04%	–
–	–	-7.04 ± 4.87	O=C(Nc1ccc(N2CCOCC2)cc1)[C@H](Cc1c[nH]c2ccccc12)NS(=O)(=O)c1ccc(O)cc1 [Compound 158, (S)-2-(4-Hydroxyphenylsulfonamido)-3-(1H-indol-3-yl)-N-(4-morpholinophenyl)propanamide]	24.87 ± ? .01%	–
–	–	–	O=C(O)c1ccc(S(=O)(=O)N[C@@H](Cc2c[nH]c3ccccc23)C(=O)Nc2ccc(N3CCOCC3)cc2)cc1 [Compound 159, (S)-4-(N-(3-(1-indol-3-yl)-1-(4-morpholinophenylamino)-1-oxopropan-2-yl)sulfamoyl)benzoic acid]	24.60 ± ? .96%	1.75 ± 8.96 (10 μM)
–	–	–	N[C@@H](Cc1c[nH]c2ccccc12)C(=O)Nc1ccc(N2CCOCC2)cc1 [Compound 160, (S)-2-Amino-3-(1-indol-3-yl)-N-(4-morpholinophenyl)propanamide]	15.52 ± 9.58%	14.92 ± 17.49 (10 μM)
–	–	20.6 ± 3.17	CC(=O)N1CCN(c2ccc(NC(=O)[C@H](Cc3c[nH]c4ccccc34)NS(=O)(=O)c3ccc(C)cc3)cc2)CC1 [Compound 162, (S)—N-(4-(4-Acetylpiperazin-1-yl)phenyl)-3-(1H-indol-3-yl)-2-(4-methylphenylsulfonamido)propanamide]	19.92 ± 16.25%	–
4.04 ± 4.08	–	–	Cc1ccc(S(=O)(=O)N[C@@H](Cc2c[nH]c3ccccc23)C(=O)NC(C)C)cc1 [Compound 180, (S)-3-(1H-indol-3-yl)-N-isopropyl-2-(4-methylphenylsulfonamido)propanamide]	28.20 ± 5.02%	–
44.1 ± 2.97	–	–	CC(C)NC(=O)[C@H](Cc1c[nH]c2ccccc12)NS(=O)(=O)c1ccc(Br)cc1 [Compound 181, (S)-2-(4-Bromophenylsulfonamido)-3-(1H-indol-3-yl)-N-isopropylpropanamide]	98.95 ± 0.74%	–
